{"source": "patent US6448232B1", "about": "“Method of using dihydrochalcone derivatives to block glucose transfer” (priority 1999, dated 2002)", "format_in_all_cases": "in vivo", "key": {"[1]": {"assay": "Urine glucose after oral ingestion of phlorizin, no food versus in milk", "conditions": "1 gm oral; for urine glucose: 85 kg male"}, "[2]": {"assay": "Body weight during oral phlorizin three times a day on an empty stomach", "conditions": "for Weight after 3 days of phlorizin: 1.5 grams oral three times a day, 90 minutes before eating", "experimental": "1.5 grams phlorizin as a dry powder in a gelatin capsule was ingested orally three times a day, 90 minutes before eating on an empty stomach. Weight measured at the same time each day with a digital electronic scale. Normal dietary conditions were maintained during the time that the phlorizin was ingested."}, "[3]": {"assay": "Whole blood glucose after ingesting 100 g of carbohydrates, glucose oxidase reaction", "experimental": "(§1) 1.5 g of phlorizin as a dry powder in a gelatin capsule was ingested one hour prior to ingesting 100 g of carbohydrates and compared to similar ingestion of carbohydrates without the prior consumption of the phlorizin. Glucose and insulin levels were measured just prior to and 30 and 60 minutes following carbohydrate ingestion and glucose levels were also measured 90 and 120 minutes after carbohydrate ingestion. Glucose levels were established by glucose oxidase reaction using whole blood and measuring the color generated with a hand-held spectrophotometer. Serum insulin was measured using commercially available immunoassay devices and methods."}, "[4]": {"assay": "Serum insulin after ingesting 100 g of carbohydrates, immunoassay", "conditions": "1.5 g oral one hour prior to 100 g of carbohydrates", "experimental": "as §1"}}}
{"smiles": "O=C(CCc1ccc(O)cc1)c1c(O)cc(O)cc1O[C@@H]1O[C@H](CO)[C@@H](O)[C@H](O)[C@H]1O", "note": "[phlorizin]", "values": [{"measurement": "urine glucose", "setting": "[1]; in milk, 0 minutes after ingestion", "value": "no food: <50 mg/dl in milk: <50 mg/dl"}, {"measurement": "urine glucose", "setting": "[1]; in milk, 90 minutes after ingestion", "value": "< 50", "unit": "mg/dL"}, {"measurement": "urine glucose", "setting": "[1]; in milk, 150 minutes after ingestion", "value": "no food: 50 mg/dl in milk: <50 mg/dl"}, {"measurement": "urine glucose", "setting": "[1]; in milk, 210 minutes after ingestion", "value": "no food: <50 mg/dl in milk: <50 mg/dl"}, {"measurement": "urine glucose", "setting": "[1]; no food (empty stomach), 0 minutes after ingestion", "value": "no food: <50 mg/dl in milk: <50 mg/dl"}, {"measurement": "urine glucose", "setting": "[1]; no food (empty stomach), 90 minutes after ingestion", "value": 500, "unit": "mg/dL"}, {"measurement": "urine glucose", "setting": "[1]; no food (empty stomach), 150 minutes after ingestion", "value": "no food: 50 mg/dl in milk: <50 mg/dl"}, {"measurement": "urine glucose", "setting": "[1]; no food (empty stomach), 210 minutes after ingestion", "value": "no food: <50 mg/dl in milk: <50 mg/dl"}, {"measurement": "effectiveness as a glucose blocker (urine glucose)", "setting": "[1]; no food versus in milk, conclusion in words", "value": "effective as a glucose blocker only if it is ingested without food on an empty stomach"}, {"measurement": "effect on body weight", "setting": "[2]; 1.5 grams oral three times a day for 3 days, conclusion in words", "value": "effective in reducing body weight"}, {"measurement": "Weight after 3 days of phlorizin", "setting": "[2]; Experiment 1, pre-phlorizin weight 192.2 lbs.", "value": 189.4, "unit": "lbs."}, {"measurement": "Weight after 3 days of phlorizin", "setting": "[2]; Experiment 2, pre-phlorizin weight 193.2 lbs.", "value": 185.4, "unit": "lbs."}, {"measurement": "Weight after 3 days of phlorizin", "setting": "[2]; Experiment 3, pre-phlorizin weight 191.5 lbs.", "value": 186.8, "unit": "lbs."}, {"measurement": "Weight after 3 days of phlorizin", "setting": "[2]; Experiment 4, pre-phlorizin weight 194.4 lbs.", "value": 189.0, "unit": "lbs."}, {"measurement": "GLUCOSE", "setting": "[3]; 1.5 g oral one hour prior to 100 g of carbohydrates, 0 minutes (just prior to carbohydrate ingestion)", "value": 90, "unit": "mg/dL"}, {"measurement": "GLUCOSE", "setting": "[3]; 1.5 g oral one hour prior to 100 g of carbohydrates, 30 minutes after carbohydrate ingestion", "value": 146, "unit": "mg/dL"}, {"measurement": "GLUCOSE", "setting": "[3]; 1.5 g oral one hour prior to 100 g of carbohydrates, 60 minutes after carbohydrate ingestion", "value": 144, "unit": "mg/dL"}, {"measurement": "GLUCOSE", "setting": "[3]; 1.5 g oral one hour prior to 100 g of carbohydrates, 90 minutes after carbohydrate ingestion", "value": 108, "unit": "mg/dL"}, {"measurement": "GLUCOSE", "setting": "[3]; 1.5 g oral one hour prior to 100 g of carbohydrates, 120 minutes after carbohydrate ingestion", "value": 117, "unit": "mg/dL"}, {"measurement": "effect on postprandial rise in glucose and insulin levels", "setting": "[3]; 1.5 g oral one hour prior to 100 g of carbohydrates, conclusion in words", "value": "able to decrease the postpandrial rise in glucose and insulin levels"}, {"measurement": "prevention of reactive hypoglycemia", "setting": "[3]; glucose levels at 90 and 120 minutes with and without phlorizin, conclusion in words", "value": "effective in preventing reactive hypoglycemia"}, {"measurement": "INSULIN", "setting": "[4]; 0 minutes (just prior to carbohydrate ingestion)", "value": 5, "unit": "microIU/ml"}, {"measurement": "INSULIN", "setting": "[4]; 30 minutes after carbohydrate ingestion", "value": 34, "unit": "microIU/ml"}, {"measurement": "INSULIN", "setting": "[4]; 60 minutes after carbohydrate ingestion", "value": 28, "unit": "microIU/ml"}]}
